Reference: patent US9114150B2, “Stable aqueous compositions comprising bioactive creatine species” (JHO INTELLECTUAL PROPERTY HOLDINGS, LLC, priority 2008, dated 2015)

Assay: Stability study of aqueous solutions (0.250 mg/mL) assayed by HPLC at periodic intervals for 60 days
Type: physicochemical
Conditions: for Creatinine in solution (HPLC assay): 0.250 mg/mL; for Prepared substance remaining in solution (HPLC assay): buffer, 0 days, 0.25 mg/mL; for Fraction converted to creatinine: aqueous media
Method: Creatinol-O-Phospate Solution: A batch of pure water or distilled water is put in a container, adjusted to a prescribed of pH 3 or pH 7 with a normal buffer and buffer salts, and heated to a temperature of 20° to 99° C. To 100 parts by weight of the warm water is added 0.1 to 0.3 parts by weight of the Creatinol-O-Phophate (COP) which is dissolved by stirring. The pH is not particularly limited but is desirably not higher than pH 12 taking the physiological influences of the gastrointestinal tracts into consideration.
They were stored at room temperature (25 C, 77 F), at refrigerator temperature (4 C, 39 F), and at elevated temperature (40 C, 104 F) in glass scintillation vials. These samples were assayed by HPLC at periodic intervals for 60 days and evaluated relative to Standard regression curves of known concentrations of the actives and of creatinine, the primary known degradation product of creatine.

[1] = prepared at pH 3.0, 25° C., 39 Days
[2] = prepared at pH 3.0, 25° C., 60 days
[3] = prepared at pH 3.0, 25° C., INITIAL
[4] = prepared at pH 3.0, 40° C., 39 Days
[5] = prepared at pH 3.0, 40° C., 60 days
[6] = prepared at pH 3.0, 40° C., INITIAL
[7] = prepared at pH 7.0, 40° C., 39 Days
[8] = prepared at pH 7.0, 40° C., 60 days
[9] = prepared at pH 7.0, 40° C., INITIAL

For `CN(CCOP(=O)(O)O)C(=N)N` [Creatinol-O-Phosphate, Creatinol-O-phosphate], the “Stability by increase in creatinine levels over time (FIG. 1, in words)” value was “stable and resistant to decomposition”, the “Stability in aqueous solution (in words)” value was “stable” and the “Creatinine in solution (HPLC assay)” value (pH 3.0, 4° C., 39 Days) was 0.00 mg/mL. For the same compound, the “Creatinine in solution (HPLC assay)” value (pH 3.0, 4° C., 3 day) was 0.0 mg/mL, the “Creatinine in solution (HPLC assay)” value (pH 3.0, 4° C., 10 days) was 0.0 mg/mL and the “Creatinine in solution (HPLC assay)” value (pH 3.0, 4° C., 21 days) was 0.0 mg/mL. The “Creatinine in solution (HPLC assay)” value (pH 3.0, 4° C., 60 days) was 0.00 mg/mL, the “Creatinine in solution (HPLC assay)” value (pH 3.0, 4° C., INITIAL) was 0.0 mg/mL and the “Creatinine in solution (HPLC assay)” value (pH 3.0, 25° C., 39 Days) was 0.00 mg/mL. For the same compound, the “Creatinine in solution (HPLC assay)” value (pH 3.0, 25° C., 3 day) was 0.0 mg/mL, the “Creatinine in solution (HPLC assay)” value (pH 3.0, 25° C., 10 days) was 0.0 mg/mL and the “Creatinine in solution (HPLC assay)” value (pH 3.0, 25° C., 21 days) was 0.0 mg/mL. The “Creatinine in solution (HPLC assay)” value (pH 3.0, 25° C., 60 days) was 0.00 mg/mL, the “Creatinine in solution (HPLC assay)” value (pH 3.0, 25° C., INITIAL) was 0.0 mg/mL and the “Creatinine in solution (HPLC assay)” value (pH 3.0, 40° C., 39 Days) was 0.00 mg/mL. For the same compound, the “Creatinine in solution (HPLC assay)” value (pH 3.0, 40° C., 3 day) was 0.0 mg/mL, the “Creatinine in solution (HPLC assay)” value (pH 3.0, 40° C., 10 days) was 0.0 mg/mL and the “Creatinine in solution (HPLC assay)” value (pH 3.0, 40° C., 21 days) was 0.0 mg/mL. For the same compound, the “Creatinine in solution (HPLC assay)” value (pH 3.0, 40° C., 60 days) was 0.00 mg/mL, the “Creatinine in solution (HPLC assay)” value (pH 3.0, 40° C., INITIAL) was 0.0 mg/mL and the “Creatinine in solution (HPLC assay)” value (pH 7.0, 4° C., 39 Days) was 0.00 mg/mL. The “Creatinine in solution (HPLC assay)” value (pH 7.0, 4° C., 3 day) was 0.0 mg/mL, the “Creatinine in solution (HPLC assay)” value (pH 7.0, 4° C., 10 days) was 0.0 mg/mL and the “Creatinine in solution (HPLC assay)” value (pH 7.0, 4° C., 21 days) was 0.0 mg/mL. The “Creatinine in solution (HPLC assay)” value (pH 7.0, 4° C., 60 days) was 0.00 mg/mL, the “Creatinine in solution (HPLC assay)” value (pH 7.0, 4° C., INITIAL) was 0.0 mg/mL and the “Creatinine in solution (HPLC assay)” value (pH 7.0, 25° C., 39 Days) was 0.00 mg/mL. For the same compound, the “Creatinine in solution (HPLC assay)” value (pH 7.0, 25° C., 3 day) was 0.0 mg/mL, the “Creatinine in solution (HPLC assay)” value (pH 7.0, 25° C., 10 days) was 0.0 mg/mL and the “Creatinine in solution (HPLC assay)” value (pH 7.0, 25° C., 21 days) was 0.0 mg/mL. The “Creatinine in solution (HPLC assay)” value (pH 7.0, 25° C., 60 days) was 0.00 mg/mL, the “Creatinine in solution (HPLC assay)” value (pH 7.0, 25° C., INITIAL) was 0.0 mg/mL and the “Creatinine in solution (HPLC assay)” value (pH 7.0, 40° C., 39 Days) was 0.00 mg/mL. For the same compound, the “Creatinine in solution (HPLC assay)” value (pH 7.0, 40° C., 3 day) was 0.0 mg/mL, the “Creatinine in solution (HPLC assay)” value (pH 7.0, 40° C., 10 days) was 0.0 mg/mL and the “Creatinine in solution (HPLC assay)” value (pH 7.0, 40° C., 21 days) was 0.0 mg/mL. The “Creatinine in solution (HPLC assay)” value (pH 7.0, 40° C., 60 days) was 0.00 mg/mL, the “Creatinine in solution (HPLC assay)” value (pH 7.0, 40° C., INITIAL) was 0.0 mg/mL and the “Prepared substance remaining in solution (HPLC assay)” value (pH 3) was 0.247 mg/ml mg/mL. The “Prepared substance remaining in solution (HPLC assay)” value (pH 7) was 0.226 mg/ml mg/mL, the “pH of the solution” value (prepared at pH 3.0, 4° C., 39 Days) was 3.1 and the “pH of the solution” value (prepared at pH 3.0, 4° C., 60 days) was 3.1. For the same compound, the “pH of the solution” value (prepared at pH 3.0, 4° C., INITIAL) was 3.0, the “pH of the solution” value [1] was 3.1 and the “pH of the solution” value [2] was 3.1. The “pH of the solution” value [3] was 3.0, the “pH of the solution” value [4] was 3.0 and the “pH of the solution” value [5] was 3.0. For the same compound, the “pH of the solution” value [6] was 3.0, the “pH of the solution” value (prepared at pH 7.0, 4° C., 39 Days) was 5.2 and the “pH of the solution” value (prepared at pH 7.0, 4° C., 60 days) was 5.2. The “pH of the solution” value (prepared at pH 7.0, 4° C., INITIAL) was 7.0, the “pH of the solution” value (prepared at pH 7.0, 25° C., 39 Days) was 5.3 and the “pH of the solution” value (prepared at pH 7.0, 25° C., 60 days) was 5.3. The “pH of the solution” value (prepared at pH 7.0, 25° C., INITIAL) was 7.0, the “pH of the solution” value [7] was 5.5 and the “pH of the solution” value [8] was 5.5. For the same compound, the “pH of the solution” value [9] was 7.0.

In the case of `CN(CC(=O)O)C(=N)N.O` [Creatine Monohydrate, reference compound], the “Creatinine in solution (HPLC assay)” value (pH 3.0, 25° C., 39 Days) is reported as 0.154 mg/mL, the “Creatinine in solution (HPLC assay)” value (pH 3.0, 25° C., 3 day) is reported as 0.026 mg/mL and the “Creatinine in solution (HPLC assay)” value (pH 3.0, 25° C., 10 days) is reported as 0.072 mg/ml mg/mL. The “Creatinine in solution (HPLC assay)” value (pH 3.0, 25° C., 21 days) was 0.111 mg/mL, the “Creatinine in solution (HPLC assay)” value (pH 3.0, 25° C., 60 days) was 0.167 mg/mL and the “Creatinine in solution (HPLC assay)” value (pH 3.0, 25° C., INITIAL) was 0.000 mg/mL. For the same compound, the “Creatinine in solution (HPLC assay)” value (pH 3.0, 40° C., 39 Days) was 0.186 mg/mL, the “Creatinine in solution (HPLC assay)” value (pH 3.0, 40° C., 3 day) was 0.125 mg/Ml mg/mL and the “Creatinine in solution (HPLC assay)” value (pH 3.0, 40° C., 10 days) was 0.177 mg/ml mg/mL. The “Creatinine in solution (HPLC assay)” value (pH 3.0, 40° C., 21 days) was 0.186 mg/mL, the “Creatinine in solution (HPLC assay)” value (pH 3.0, 40° C., 60 days) was 0.187 mg/mL and the “Creatinine in solution (HPLC assay)” value (pH 3.0, 40° C., INITIAL) was 0.000 mg/mL. The “Creatinine in solution (HPLC assay)” value (pH 7.0, 40° C., 39 Days) was 0.068 mg/mL, the “Creatinine in solution (HPLC assay)” value (pH 7.0, 40° C., 3 day) was 0.008 mg/mL and the “Creatinine in solution (HPLC assay)” value (pH 7.0, 40° C., 60 days) was 0.101 mg/mL. The “Creatinine in solution (HPLC assay)” value (pH 7.0, 40° C., INITIAL) was 0.000 mg/mL, the “Fraction converted to creatinine” value (39 days, pH 3.0, stored at 40° C.) was 74% and the “Fraction converted to creatinine” value (39 days, pH 7.0, stored at 40° C.) was 28%. The “Fraction converted to creatinine” value (pH 3.0, stored at 4° C.) was 62%, the “pH of the solution” value [1] was 3.4 and the “pH of the solution” value [2] was 3.4. The “pH of the solution” value [3] was 3.0, the “pH of the solution” value [4] was 3.4 and the “pH of the solution” value [5] was 3.4. The “pH of the solution” value [6] was 3.0, the “pH of the solution” value [7] was 7.4 and the “pH of the solution” value [8] was 7.4. The “pH of the solution” value [9] was 7.0.
